Assay results published in PubChem BioAssay (NCI).
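Each compound was tested at five concentrations against cells in 96-well plates for 48 hours. GI50 is the concentration that inhibits growth by half. TGI is the concentration that stops growth completely.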

What was measured:
Experiment in all cases: growth of human tumour cells (NCI), 48 h
A549 NSCLC = tested on: A549 NSCLC
CCRF-CEM leukemia = tested on: CCRF-CEM leukemia
DU-145 prostate = tested on: DU-145 prostate
HCC-2998 colon = tested on: HCC-2998 colon
HOP-62 NSCLC = tested on: HOP-62 NSCLC
HOP-92 NSCLC = tested on: HOP-92 NSCLC
IGROV1 ovarian = tested on: IGROV1 ovarian
K-562 leukemia = tested on: K-562 leukemia
KM12 colon = tested on: KM12 colon
KM20L2 colon = tested on: KM20L2 colon
M14 melanoma = tested on: M14 melanoma
MOLT-4 leukemia = tested on: MOLT-4 leukemia
NCI-H226 lung = tested on: NCI-H226 lung
SK-MEL-2 melanoma = tested on: SK-MEL-2 melanoma
SNB-19 CNS = tested on: SNB-19 CNS
SNB-78 CNS = tested on: SNB-78 CNS
SW-620 colon = tested on: SW-620 colon
T-47D breast = tested on: T-47D breast

O=C1C=CC=C[C@@H]2C(C3OCCO3)CC[C@H]12.[C-]#[O+].[C-]#[O+].[C-]#[O+].[Fe] (stereo partly specified)
GI50 (A549 NSCLC): > 100 µM
TGI (A549 NSCLC): > 100 µM
GI50 (CCRF-CEM leukemia): 24.4 µM
TGI (CCRF-CEM leukemia): > 89.8 µM
GI50 (DU-145 prostate): 93.3 µM
TGI (DU-145 prostate): > 100 µM
GI50 (HCC-2998 colon): > 76.6 µM
TGI (HCC-2998 colon): > 100 µM
GI50 (HOP-62 NSCLC): > 95.3 µM
TGI (HOP-62 NSCLC): > 100 µM
GI50 (HOP-92 NSCLC): > 100 µM
TGI (HOP-92 NSCLC): > 100 µM
GI50 (IGROV1 ovarian): 26 µM
TGI (IGROV1 ovarian): 78.7 µM
GI50 (K-562 leukemia): 41.6 µM
TGI (K-562 leukemia): > 100 µM
GI50 (KM12 colon): 48 µM
TGI (KM12 colon): > 100 µM
GI50 (KM20L2 colon): > 100 µM
TGI (KM20L2 colon): > 100 µM
GI50 (M14 melanoma): 37.8 µM
TGI (M14 melanoma): > 74.9 µM
GI50 (MOLT-4 leukemia): 26.5 µM
TGI (MOLT-4 leukemia): 68.1 µM
GI50 (NCI-H226 lung): > 83.5 µM
TGI (NCI-H226 lung): > 100 µM
GI50 (SK-MEL-2 melanoma): > 71.1 µM
TGI (SK-MEL-2 melanoma): > 100 µM
GI50 (SNB-19 CNS): > 100 µM
TGI (SNB-19 CNS): > 100 µM
GI50 (SNB-78 CNS): 22.8 µM
TGI (SNB-78 CNS): 66 µM
GI50 (SW-620 colon): 29.9 µM
TGI (SW-620 colon): > 100 µM
GI50 (T-47D breast): > 100 µM
TGI (T-47D breast): > 100 µM
